The source of these data is PubChem BioAssay (NCI).

The structures appear in SMILES notation.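 The compound was tested at five concentrations on cells cultured in 96-well plates, with a 48-hour exposure period. TGI marks complete inhibition of growth.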

Among the test systems are CAKI-1 renal; M19-MEL melanoma; XF 498 CNS; HOP-18 NSCLC; SNB-78 CNS; OVCAR-5 ovarian; OVCAR-8 ovarian; DLD-1 colon; LXFL 529 NSCLC; KM20L2 colon; DMS 114 small cell lung; DMS 273 small cell lung; RXF-631 renal; MDA-MB-435.
Common to all, as to experiment: NCI-60 cell line screen, 48 h

As to `NC(=S)N/N=C(/CCN1CCCC1)CC(C1=C(O)C2=CCCCC2OC1=O)c1ccccc1` (stereo not drawn), the TGI in the assay on CAKI-1 renal, in the assay on M19-MEL melanoma, in the assay on XF 498 CNS, with HOP-18 NSCLC, in the assay on SNB-78 CNS and in the assay with OVCAR-5 ovarian was over 100 µM throughout. The TGI with OVCAR-8 ovarian, in the assay with DLD-1 colon, with LXFL 529 NSCLC and with KM20L2 colon was over 100 µM throughout.
`CC(C)C1COC(C(C)(C)C2=N[C@@H](C(C)C)CO2)=N1` (stereo partly drawn): the TGI with M19-MEL melanoma, in the assay with XF 498 CNS, with DMS 114 small cell lung, in the assay with HOP-18 NSCLC, with DMS 273 small cell lung and with OVCAR-5 ovarian was over 100 µM each time. In addition, the TGI in the assay on OVCAR-8 ovarian, with DLD-1 colon, with LXFL 529 NSCLC, in the assay with KM20L2 colon and in the assay with RXF-631 renal was over 100 µM each time.
For the compound `Cc1ccc([N+](=O)[O-])cc1NC(=O)/C(CC(=O)c1sc(C(N)=S)nc1C)=N\N`, the TGI in the assay on CAKI-1 renal, in the assay with M19-MEL melanoma, in the assay with DMS 114 small cell lung, with HOP-18 NSCLC, with DMS 273 small cell lung and in the assay with SNB-78 CNS was over 100 µM throughout. The TGI in the assay with OVCAR-5 ovarian, in the assay with OVCAR-8 ovarian, in the assay on DLD-1 colon, in the assay with LXFL 529 NSCLC, with KM20L2 colon and with RXF-631 renal was over 100 µM in each case.
`COc1ccc(C2S/C(=C\c3ccc([N+](=O)[O-])cc3)C(=O)N2NC(=O)Cc2ccccc2)cc1` (stereo not drawn): the TGI in the assay with CAKI-1 renal, in the assay on M19-MEL melanoma, in the assay with DMS 114 small cell lung, in the assay on HOP-18 NSCLC, in the assay with DMS 273 small cell lung and in the assay on OVCAR-5 ovarian was over 100 µM throughout. For the same compound, the TGI in the assay with OVCAR-8 ovarian, in the assay with DLD-1 colon and in the assay on LXFL 529 NSCLC was over 100 µM in each case.
On to `CN(C)CCSC(=Nc1ccccc1)n1cccc1`, for which the TGI was over 100 µM with CAKI-1 renal; over 100 µM in the assay with M19-MEL melanoma; over 100 µM in the assay on XF 498 CNS; 80.8 µM with DMS 114 small cell lung; over 100 µM in the assay on HOP-18 NSCLC; over 100 µM in the assay with DMS 273 small cell lung. Moreover, the TGI was 76.9 µM in the assay on SNB-78 CNS; over 100 µM in the assay with OVCAR-5 ovarian; over 100 µM in the assay with OVCAR-8 ovarian; over 100 µM in the assay with DLD-1 colon; over 100 µM with LXFL 529 NSCLC; over 100 µM in the assay with KM20L2 colon.
`COc1ccc(/C=N/NC(=O)CSc2nc(-c3ccccc3)c(-c3ccccc3)[nH]2)cc1OC`: the TGI in the assay with CAKI-1 renal is 72.9 µM; with M19-MEL melanoma it was 35.3 µM; in the assay on DMS 114 small cell lung, over 100 µM; in the assay with DMS 273 small cell lung, 40.7 µM; with OVCAR-5 ovarian, 64 µM; with OVCAR-8 ovarian it was 36.3 µM. For the same compound, the results for the TGI with DLD-1 colon, in the assay with LXFL 529 NSCLC and in the assay with KM20L2 colon were over 100 µM, 55.1 µM and 41.6 µM, respectively.
`COc1cc2c(cc1OC)C(Cc1cc(Br)c(OC)c(OC)c1)=[N+](C)CC2`: the TGI in the assay on CAKI-1 renal was over 100 µM; in the assay on M19-MEL melanoma, over 100 µM; in the assay on DMS 114 small cell lung, 57 µM; in the assay with HOP-18 NSCLC, over 100 µM; in the assay on SNB-78 CNS, over 100 µM; in the assay on OVCAR-5 ovarian, over 100 µM. For the same compound, the TGI in the assay on OVCAR-8 ovarian, with DLD-1 colon, with LXFL 529 NSCLC and in the assay with KM20L2 colon was over 100 µM throughout.
Consider `COC(=O)[C@H]1C2CC[C@@H]3C45C[C@@H](c6ccoc6)O[C@@H]4O[C@@H](O2)C31CCC5C` (stereo partly drawn), for which the TGI in the assay with CAKI-1 renal, in the assay on XF 498 CNS, in the assay on HOP-18 NSCLC, in the assay on DMS 273 small cell lung, with SNB-78 CNS and with OVCAR-5 ovarian was over 100 µM in each case. In addition, the TGI in the assay on OVCAR-8 ovarian, with DLD-1 colon, in the assay with LXFL 529 NSCLC and in the assay on KM20L2 colon was over 100 µM in each case.
As to `N#CC(C(=S)Nc1ccccc1)=C1Nc2ccccc2N1`, the TGI in the assay on CAKI-1 renal, in the assay on M19-MEL melanoma, in the assay with XF 498 CNS, with DMS 114 small cell lung, in the assay with HOP-18 NSCLC and with DMS 273 small cell lung was over 10 µM each time. For the same compound, the TGI in the assay with OVCAR-5 ovarian, in the assay with OVCAR-8 ovarian, in the assay on DLD-1 colon, in the assay with LXFL 529 NSCLC and in the assay on KM20L2 colon was over 10 µM throughout.
Turning to `CC1(C)OC2C(O1)[C@H]1OC(C(Cl)(Cl)Cl)=N[C@H]1C(I)[C@H]2N1C(=O)c2ccccc2C1=O` (stereo partly drawn), the TGI in the assay on M19-MEL melanoma, in the assay with DMS 114 small cell lung, with HOP-18 NSCLC, in the assay on DMS 273 small cell lung, in the assay with SNB-78 CNS and in the assay with OVCAR-5 ovarian was over 100 µM in each case. For the same compound, the TGI in the assay with OVCAR-8 ovarian, in the assay on DLD-1 colon, in the assay on LXFL 529 NSCLC and with KM20L2 colon was over 100 µM throughout.
`CCOC(=O)/C(=C/c1ccccc1)N(CC)CC`: the TGI with CAKI-1 renal, in the assay on M19-MEL melanoma, in the assay on XF 498 CNS, with DMS 114 small cell lung, in the assay on DMS 273 small cell lung and in the assay with SNB-78 CNS was over 100 µM in each case. The TGI in the assay on OVCAR-5 ovarian, in the assay on OVCAR-8 ovarian, with LXFL 529 NSCLC and in the assay with KM20L2 colon was over 100 µM each time.
For the compound `N#CC(C#N)=C(N)/C(C#N)=C/c1ccc(O)c(O)c1`, the TGI in the assay with CAKI-1 renal, in the assay on MDA-MB-435, in the assay with M19-MEL melanoma, with XF 498 CNS, with DMS 114 small cell lung and in the assay with DMS 273 small cell lung was over 100 µM each time. Moreover, the TGI with SNB-78 CNS, in the assay with OVCAR-5 ovarian, with OVCAR-8 ovarian, in the assay on DLD-1 colon, in the assay with LXFL 529 NSCLC and in the assay with KM20L2 colon was over 100 µM throughout.
For `CCOc1cc2cnc3c4cc(OC)c(OC)cc4ccc3c2cc1OC`, the TGI with CAKI-1 renal, in the assay with M19-MEL melanoma, with DMS 114 small cell lung, in the assay with HOP-18 NSCLC, with SNB-78 CNS and with OVCAR-5 ovarian was over 100 µM throughout. The TGI with OVCAR-8 ovarian, in the assay on DLD-1 colon, in the assay on LXFL 529 NSCLC and with KM20L2 colon was over 100 µM throughout.
`COc1cc(CO)cc2c1[nH]c1ccccc12`: the TGI in the assay with M19-MEL melanoma, in the assay on XF 498 CNS, in the assay on DMS 114 small cell lung, in the assay on HOP-18 NSCLC, in the assay with DMS 273 small cell lung and in the assay with SNB-78 CNS was over 25 µM each time. The TGI in the assay on OVCAR-5 ovarian, with OVCAR-8 ovarian, in the assay with DLD-1 colon, in the assay on LXFL 529 NSCLC and in the assay with KM20L2 colon was over 25 µM in each case.
With `CC1=C(c2ccccc2)CON(c2ccccc2)C1`, the TGI in the assay with CAKI-1 renal, in the assay on M19-MEL melanoma, with XF 498 CNS, in the assay on DMS 114 small cell lung, in the assay with SNB-78 CNS and with OVCAR-5 ovarian was over 100 µM in each case. In addition, the TGI in the assay with OVCAR-8 ovarian is over 100 µM; with LXFL 529 NSCLC, over 100 µM; in the assay with KM20L2 colon, over 100 µM; with RXF-631 renal, 77.4 µM.
Take `O=C(c1nc2ccc(Cl)cc2[nH]c1=O)C(O)c1ccco1` (stereo not drawn): the TGI with CAKI-1 renal, with M19-MEL melanoma, in the assay on DMS 114 small cell lung, with HOP-18 NSCLC, with DMS 273 small cell lung and with OVCAR-5 ovarian was over 100 µM in each case. Further, the TGI in the assay with DLD-1 colon is over 100 µM; in the assay with LXFL 529 NSCLC, over 100 µM; with KM20L2 colon, 85.1 µM; in the assay on RXF-631 renal, over 100 µM.
Turning to `FC(F)(F)c1nc2c(ccc3[nH]c4c(-c5ccccc5)nccc4c32)[nH]1`, the TGI was over 100 µM in the assay with CAKI-1 renal; over 100 µM in the assay on M19-MEL melanoma; over 100 µM in the assay with XF 498 CNS; over 61 µM in the assay with DMS 114 small cell lung; over 100 µM in the assay with HOP-18 NSCLC; over 100 µM with SNB-78 CNS. Besides, the TGI in the assay with OVCAR-5 ovarian, with OVCAR-8 ovarian, with DLD-1 colon, in the assay on LXFL 529 NSCLC, with KM20L2 colon and in the assay with RXF-631 renal was over 100 µM in each case.
Turning to `CC(=O)NC(CCCCN(Cc1ccccc1)C(=O)N(C)N=O)C(=O)NCc1ccccc1` (stereo not drawn), the TGI in the assay on CAKI-1 renal, in the assay with M19-MEL melanoma, in the assay on XF 498 CNS, with DMS 114 small cell lung, in the assay with DMS 273 small cell lung and with SNB-78 CNS was over 100 µM in each case. Further, the TGI in the assay on OVCAR-5 ovarian, in the assay on OVCAR-8 ovarian, with DLD-1 colon, with LXFL 529 NSCLC, with KM20L2 colon and in the assay on RXF-631 renal was over 100 µM throughout.
With `Clc1ccc(C2=Cc3nc2c(-c2ccccc2)c2ccc([nH]2)c(-c2ccccc2)c2nc(c(-c4ccccc4)c4ccc([nH]4)c3-c3ccccc3)C=C2)cc1`, the TGI in the assay on CAKI-1 renal was 49.9 µM; with MDA-MB-435 it was over 62.5 µM; with OVCAR-5 ovarian it was over 62.5 µM; with OVCAR-8 ovarian it was over 62.5 µM.
On to `Nc1nc(Cl)cc(NCC2(CO)CC=CC2)n1`, for which the TGI with CAKI-1 renal, in the assay on MDA-MB-435, with OVCAR-5 ovarian and with OVCAR-8 ovarian was over 100 µM each time.
With `C/C=C/C(O)P(=O)(OC)OC` (stereo not drawn), the TGI was 1.85 µM with CAKI-1 renal, 0.802 µM in the assay with MDA-MB-435, 1.22 µM in the assay with OVCAR-5 ovarian and 1.78 µM in the assay on OVCAR-8 ovarian.
`COc1ccccc1CC1(O)OC(=O)c2ccccc21` (stereo not drawn): the TGI with CAKI-1 renal, in the assay with MDA-MB-435, in the assay on OVCAR-5 ovarian and in the assay on OVCAR-8 ovarian was over 100 µM in each case.
Turning to `O=C1c2ccccc2C(=O)c2c1sc1nc3ccccc3n21`, the TGI was determined as 4.27 µM with CAKI-1 renal, 4.37 µM in the assay with MDA-MB-435, 4.28 µM in the assay with OVCAR-5 ovarian and 3.82 µM in the assay with OVCAR-8 ovarian.
For `COc1c(OC)c(OC)c2c(=O)c(OC)c(-c3ccc4c(c3)OCO4)oc2c1OC`, in that order: over 100 µM, over 100 µM, over 100 µM and over 100 µM.
On to `COc1ccc([C@H]2[C@@H]3CCc4ccccc4C3=NN2C(N)=S)cc1OC`, for which the TGI in the assay on M19-MEL melanoma was over 100 µM; with XF 498 CNS it was over 100 µM; in the assay on DMS 114 small cell lung it was 93.7 µM; in the assay with HOP-18 NSCLC, over 100 µM; with SNB-78 CNS, over 100 µM; with OVCAR-5 ovarian, over 100 µM. In addition, the TGI with OVCAR-8 ovarian, with DLD-1 colon, in the assay with LXFL 529 NSCLC and in the assay on KM20L2 colon was over 100 µM in each case.
With `CC(=O)O[C@H]1C(=O)[C@@]2(C)[C@H]([C@H](OC(=O)c3ccccc3)[C@]3(O)C[C@H](OC(=O)[C@H](O)[C@@H](NC(=O)C(C)(O)C(C)O)c4ccccc4)C(C)=C1C3(C)C)[C@]1(OC(C)=O)CO[C@@H]1C[C@@H]2O` (stereo partly drawn), the TGI in the assay on CAKI-1 renal was over 50 µM; in the assay on MDA-MB-435, 0.169 µM; in the assay with OVCAR-5 ovarian, 4.65 µM; with OVCAR-8 ovarian, over 50 µM.
Consider `O=C(Cn1c2c(c3ccccc31)CCCC2)N1CCOCC1`, for which the TGI with CAKI-1 renal, in the assay with MDA-MB-435, in the assay on OVCAR-5 ovarian and with OVCAR-8 ovarian was over 100 µM in each case.
